Reference: ChEMBL document CHEMBL1129003, “Cycloleonuripeptides A, B and C, three new proline-rich cyclic nonapeptides from Leonurus heterophyllus” (Bioorg Med Chem Lett, 1996)
Values after ≈ are worked out from the molar mass of the structure shown.

System: P388
Experiment: Compound was evaluated for the growth inhibitory activity against p-388 lymphocytic leukemia cells.
Type: functional, cell-based, Mus musculus

IC50 (p388) [µg/mL]	IC50 (Mus musculus, P388, read-out: IC50) [µg/mL]	Structure (SMILES)
6 (≈ 6.21 µM)		CC[C@@H](C)[C@H]1NC(=O)[C@@H](CC[S+](C)[O-])NC(=O)[C@H]2CCCN2C(=O)[C@H]2CCCN2C(=O)[C@@H](Cc2ccc(O)cc2)NC(=O)[C@H]2CCCN2C(=O)[C@H]2CCCN2C(=O)[C@H]2CCCN2C(=O)CNC1=O (single isomer, unassigned; isomer 1)
	3.7 (≈ 3.83 µM)	CC[C@@H](C)[C@H]1NC(=O)[C@@H](CC[S+](C)[O-])NC(=O)[C@H]2CCCN2C(=O)[C@H]2CCCN2C(=O)[C@@H](Cc2ccc(O)cc2)NC(=O)[C@H]2CCCN2C(=O)[C@H]2CCCN2C(=O)[C@H]2CCCN2C(=O)CNC1=O (single isomer, unassigned; isomer 2)
